Experimental data taken from PMC9454089, “Structural and Mechanistic Evidence for Calcium Interacting Sites in the HIV Transmembrane Protein gp41 Involved in Membrane Fusion” (Biochemistry, 2022).
Where two headings read alike, the source gives them in different places. Residues, ends and D or L forms follow the SMILES beside them.

Test system: gp41 mediated cell–cell fusion (HXB2 strain HIV-1 Env; HL2-3 / TZM-bl cells)
Format: cell-based
Settings: Figure 3, TZM-bl target and HL2/3 effector cells, 6 h coculture at 37 °C, luciferase, average ± S.E.M., n = 3, read-out: IC50, inhibition of cell–cell fusion
Procedure: Effector cells were the Env expressing cells HL2-3, a HeLa-derived cell line which constitutively expresses the HXB2 strain of the HIV-1 Env glycoprotein along the Tat protein, and as target cells, TZM-bl cells were used. The fusion of HL2-3 cells with TZM-bl cells was assessed through luciferase expression. The TZM-bl cells were seeded at 2 × 10^4 cells/well overnight in 96-well plates. The medium was then aspirated from each well and replaced with serum-free DMEM containing 40 μg/mL DEAE-dextran. […] Upon addition of the peptides, the HL2-3 cells were added to the TZM-bl cells in serum-free DMEM containing 40 μg/mL DEAE-dextran at a 1:1 cell ratio. The cells were cocultured at 37 °C for 6 h to allow the fusion to occur. Luciferase activity was analyzed using the Steady-Glo luciferase assay kit (Promega). Fitting of the data points was performed according to the following equation, derived from Hills’ equation [drawing 1]
For the fitting, we uploaded the X and Y values of the data into a nonlinear least-square regression (curve fitter) program that provided the IC50 value (parameter A).
A one-tailed Student’s T-test was used. P < 0.05 was considered significant. Analyses were done using GraphPad Prism (data analysis software) version 6.05 (*P ≤ 0.05, **P ≤ 0.01, and ***P ≤ 0.001).

| Compound | IC50 (0 mM Ca2+) | IC50 (2 mM Ca2+) | IC50 (5 mM Ca2+) |
| --- | --- | --- | --- |
| CC[C@H](C)[C@H](NC(=O)[C@H](CCC(=O)O)NC(=O)[C@H](CCCNC(=N)N)NC(=O)[C@H](C)NC(=O)[C@H](Cc1c[nH]c2ccccc12)NC(=O)[C@H](CCC(=O)O)NC(=O)[C@H](CCSC)NC(=O)[C@@H](N)Cc1c[nH]c2ccccc12)C(=O)N[C@@H](CC(N)=O)C(=O)N[C@@H](CC(N)=O)C(=O)N[C@@H](Cc1ccc(O)cc1)C(=O)N[C@H](C(=O)N[C@@H](CO)C(=O)N[C@@H](CC(C)C)C(=O)N[C@H](C(=O)N[C@@H](Cc1c[nH]cn1)C(=O)N[C@@H](CO)C(=O)N[C@@H](CC(C)C)C(=O)N[C@H](C(=O)N[C@@H](CCC(=O)O)C(=O)N[C@@H](CCC(=O)O)C(=O)N[C@@H](CO)C(=O)N[C@@H](CCC(N)=O)C(=O)N[C@@H](CC(N)=O)C(=O)N[C@@H](CCC(N)=O)C(=O)N[C@@H](CCC(N)=O)C(=O)N[C@@H](CCC(=O)O)C(=O)N[C@@H](CCCCN)C(=O)N[C@@H](CC(N)=O)C(=O)N[C@@H](CCC(=O)O)C(=O)N[C@@H](CCC(N)=O)C(=O)N[C@@H](CCC(=O)O)C(=O)N[C@@H](CC(C)C)C(=O)N[C@@H](CC(C)C)C(N)=O)[C@@H](C)CC)[C@@H](C)CC)[C@@H](C)O [C34 D-A] | 0.0006 ± 0.0004 µM | 0.0015 ± 0.0007 µM | – |
| CC[C@H](C)[C@H](NC(=O)CNC(=O)[C@H](Cc1c[nH]c2ccccc12)NC(=O)[C@@H](NC(=O)[C@@H](NC(=O)[C@H](CC(C)C)NC(=O)[C@H](CCC(N)=O)NC(=O)[C@H](CC(C)C)NC(=O)[C@H](CC(C)C)NC(=O)[C@H](C)NC(=O)[C@H](CCC(N)=O)NC(=O)[C@H](CCC(N)=O)NC(=O)[C@H](C)NC(=O)[C@H](C)NC(=O)[C@@H](NC(=O)[C@H](C)NC(=O)[C@H](C)NC(=O)[C@H](CC(C)C)NC(=O)[C@H](CC(C)C)NC(=O)[C@H](CC(N)=O)NC(=O)[C@H](CC(N)=O)NC(=O)[C@H](CCC(N)=O)NC(=O)[C@H](CCC(N)=O)NC(=O)[C@H](CCC(N)=O)NC(=O)[C@@H](NC(=O)[C@@H](NC(=O)CNC(=O)[C@@H](N)CO)[C@@H](C)CC)C(C)C)[C@@H](C)CC)[C@@H](C)O)C(C)C)C(=O)N[C@@H](CCCCN)C(=O)N[C@@H](CCC(N)=O)C(=O)N[C@@H](CC(C)C)C(=O)N[C@@H](CCC(N)=O)C(=O)N[C@@H](C)C(=O)N[C@@H](CCCNC(=N)N)C(=O)N[C@H](C(=O)N[C@@H](CC(C)C)C(N)=O)[C@@H](C)CC [N36 3A] (H-SGIVQQQNNLLAAIAAQQALLQLTVWGIKQLQARIL-NH2) | 2.98 ± 1.07 µM | 0.262 ± 0.18 µM | 0.8 ± 0.14 µM |
